In US10334851B2, “Herbicidal isoxazolo[5,4-B]pyridines” (BASF SE, priority 2010, dated 2019):

Experiments:
Assay type in all cases: in vivo
[1] = tested on: Amaranthus retroflexus L.; assay: Greenhouse post-emergence treatment of Amaranthus retroflexus L. (pigweed); conditions: for pest or weed control at 1000 g/ha / damage: application rate 1.0 kg/ha; for damage: scale 0 to 100
Excerpt: (§1) The seeds of the test plants were sown separately for each species. For the post-emergence treatment, the test plants were first grown to a height of 3 to 15 cm, depending on the plant habit, and only then treated with the active ingredients which had been suspended or emulsified in water. For this purpose, the test plants were either sown directly and grown in the same containers, or they were first grown separately as seedlings and transplanted into the test containers a few days prior to treatment. Depending on the species, the plants were kept at 10-25° C. or 20-35° C. The test period extended over 2 to 4 weeks. During this time, the plants were tended, and their response to the individual treatments was evaluated. Evaluation was carried out using a scale from 0 to 100. 100 means no emergence of the plants, or complete destruction of at least the aerial moieties, and 0 means no damage, or normal course of growth. A good herbicidal activity is given at values of at least 80 and a very good herbicidal activity is given at values of at least 90. The plants used in the greenhouse experiments belonged to the following species: [table]

Chenopodium album = assay: Greenhouse post-emergence treatment of Chenopodium album (fat-hen); conditions: for pest or weed control at 1000 g/ha / damage: application rate 1.0 kg/ha; for damage: scale 0 to 100
Excerpt: as §1

Setaria faberi = assay: Greenhouse post-emergence treatment of Setaria faberi (giant foxtail); conditions: application rate 3.0 kg/ha; for pest or weed control at 3000 g/ha: scale 0 to 100, read-out: damage; for damage: scale 0 to 100
Excerpt: as §1

Abutilon theophrasti = assay: Greenhouse post-emergence treatment of Abutilon theophrasti (velvetleaf); conditions: application rate 3.0 kg/ha, scale 0 (no damage) to 100 (complete destruction); for pest or weed control at 3000 g/ha: Abutilon theophrasti
Excerpt: as §1

[2] = scale 0 to 100, read-out: damage
[3] = application rate 0.927 kg/ha, scale 0 to 100, read-out: damage

CC(C)(C)Oc1noc2nc(C3CC3)cc(C(=O)O)c12 [I.2.58] gave a pest or weed control at 1000 g/ha [1, 2] of 100% and a pest or weed control at 1000 g/ha (Chenopodium album; [2]) of 100%.

CCc1ccc(-c2noc3nc(C4CC4)cc(C(=O)O)c23)cc1 [I.2.61] gave a damage [1] of 100% and a damage (Chenopodium album) of 100%.

CCOc1ccc(-c2noc3nc(C4CC4)cc(C(=O)O)c23)cc1 [I.2.62] was tested, and the damage [1] was 100% and the damage (Chenopodium album) was 100%.

With CCCCOc1ccc(-c2noc3nc(C4CC4)cc(C(=O)O)c23)cc1 [I.2.63] the damage [1] was 100% and the damage (Chenopodium album) was 100%.

In the case of CC(C)c1ccc(-c2noc3nc(C4CC4)cc(C(=O)O)c23)cc1 [I.2.66], the damage [1] was 100% and the damage (Chenopodium album) was 100%.

In the case of CC(C)(C)c1ccc(-c2noc3nc(C4CC4)cc(C(=O)O)c23)cc1 [I.2.71], the damage [1] was 100% and the damage (Chenopodium album) was 100%.

With COC(=O)c1cc(C2CC2)nc2onc(-c3cccnc3)c12 [I.4.2] the pest or weed control at 3000 g/ha (Setaria faberi) was 85%.

In the case of COC(=O)c1cc(C2CC2)nc2onc(C3CC3C)c12 (stereo not shown) [I.4.3], the pest or weed control at 3000 g/ha (Setaria faberi) was 90%.

Compound COC(=O)c1cc(C2CC2)nc2onc(C3CCC3)c12 [I.4.4] has a pest or weed control at 3000 g/ha (Abutilon theophrasti) of 100%.

With COC(=O)c1cc(C2CC2)nc2onc(CCc3ccccc3)c12 [I.4.5] the damage (Abutilon theophrasti) was 85%.

COC(=O)c1cc(C2CC2)nc2onc(C(F)(F)F)c12 [I.4.6] was tested, and the pest or weed control at 3000 g/ha (Setaria faberi) was 80%.

Work on COC(=O)c1cc(C2CC2)nc2onc(-c3cccc(OC)c3)c12 [I.4.19] yielded a damage (Setaria faberi) of 100%.

Compound CCCCCc1noc2nc(C3CC3)cc(C(=O)OC)c12 [I.4.25] has a damage (Abutilon theophrasti) of 100%.

COC(=O)c1cc(C2CC2)nc2onc(CCC3CCCCC3)c12 [I.4.27] showed a pest or weed control at 3000 g/ha (Abutilon theophrasti) of 100%.

For CSC(=O)c1cc(C2CC2)nc2onc(CC(C)(C)C)c12 [I.4.45], the damage [1] was 100%.

Work on CSC(=O)c1cc(C2CC2)nc2onc(-c3ccc(F)cc3)c12 [I.4.47] yielded a damage [1] of 95%.

CCCc1noc2nc(C3CC3)cc(C(=O)SC)c12 [I.4.59] gave a damage [1] of 95% and a damage (Chenopodium album) of 100%.

CSC(=O)c1cc(C2CC2)nc2onc(C3CC3)c12 [I.4.60] showed a pest or weed control at 927 g/ha [1, 3] of 100% and a pest or weed control at 927 g/ha (Chenopodium album; [3]) of 100%.

NC(=O)c1cc(C2CC2)nc2onc(C3CC3)c12 [I.4.63] showed a pest or weed control at 1000 g/ha [1, 2] of 100% and a pest or weed control at 1000 g/ha (Chenopodium album; [2]) of 100%.

CCc1cc(C(=O)O)c2c(C)noc2n1 [I.5.4] showed a pest or weed control at 3000 g/ha (Abutilon theophrasti) of 85%.

Work on Cc1ccccc1-c1cc(C(=O)O)c2c(C)noc2n1 [I.5.8] yielded a damage (Setaria faberi) of 85%.

For Cc1cc(C(=O)O)c2c(C(C)C)noc2n1 [I.7.10], the pest or weed control at 3000 g/ha (Abutilon theophrasti) was 100%.

Cc1cc(C(=O)O)c2c(C3CC3)noc2n1 [I.7.13] showed a pest or weed control at 3000 g/ha (Abutilon theophrasti) of 100%.

Cc1cc(C(=O)O)c2c(-c3ccccc3)noc2n1 [I.7.31] gave a damage (Abutilon theophrasti) of 98%.

In the case of Cc1cc(C(=O)O)c2c(-c3ccco3)noc2n1 [I.7.38], the pest or weed control at 3000 g/ha (Abutilon theophrasti) was 100%.

In the case of CCCc1noc2nc(C)cc(C(=O)O)c12 [I.7.39], the damage (Abutilon theophrasti) was 100%.

Compound Cc1cc(C(=O)O)c2c(CC(C)(C)C)noc2n1 [I.7.41] has a damage (Abutilon theophrasti) of 100%.

COC(=O)c1cc(C2(F)CC2)nc2onc(C3CC3)c12 [I.7.53] was tested, and the pest or weed control at 1000 g/ha [1, 2] was 100% and the pest or weed control at 1000 g/ha (Chenopodium album; [2]) was 90%.

O=C(O)c1cc(C2CC2(F)F)nc2onc(C3CC3)c12 (stereo not shown) [I.7.55] gave a pest or weed control at 1000 g/ha [1, 2] of 100% and a pest or weed control at 1000 g/ha (Chenopodium album; [2]) of 100%.

For O=C(O)c1cc(C2CC2(F)F)nc2onc(-c3ccccc3)c12 (stereo not shown) [I.7.56], the damage [1] was 80% and the damage (Chenopodium album) was 90%.

With COc1ccc(-c2noc3nc(C4CC4(F)F)cc(C(=O)O)c23)cc1 (stereo not shown) [I.7.57] the damage [1] was 80% and the damage (Chenopodium album) was 98%.

For COc1ccc(-c2noc3nc(C4(F)CC4)cc(C(=O)O)c23)cc1 [I.7.61], the damage [1] was 100% and the damage (Chenopodium album) was 100%.

O=C(O)c1cc(C2(F)CC2)nc2onc(-c3ccccc3)c12 [I.7.62] gave a damage [1] of 100% and a damage (Chenopodium album) of 100%.

Compound CCCc1noc2nc(C3(F)CC3)cc(C(=O)O)c12 [I.7.63] has a damage [1] of 100% and a damage (Chenopodium album) of 100%.

Compound CC(C)(C)c1noc2nc(C3(F)CC3)cc(C(=O)O)c12 [I.7.64] has a pest or weed control at 1000 g/ha [1, 2] of 100% and a pest or weed control at 1000 g/ha (Chenopodium album; [2]) of 100%.

In the case of O=C(O)c1cc(C2(F)CC2)nc2onc(-c3ccc(OC(F)F)cc3)c12 [I.7.65], the damage [1] was 100% and the damage (Chenopodium album) was 100%.

Compound CC(C)Cc1noc2nc(C3(F)CC3)cc(C(=O)O)c12 [I.7.68] has a damage [1] of 100% and a damage (Chenopodium album) of 100%.

With CCc1noc2nc(C3(F)CC3)cc(C(=O)O)c12 [I.7.90] the pest or weed control at 1000 g/ha [1, 2] was 100% and the pest or weed control at 1000 g/ha (Chenopodium album; [2]) was 100%.

Cc1noc2nc3c(c(C(=O)O)c12)CCC3 [I.8.1] showed a pest or weed control at 3000 g/ha (Abutilon theophrasti) of 100%.

For COC(=O)c1cc(C2CC2)nc2onc(C3CC3)c12 [I.8.4], the pest or weed control at 1000 g/ha [1, 2] was 100% and the pest or weed control at 1000 g/ha (Chenopodium album; [2]) was 100%.
